Source: the supplement of paper PMC10307832

Compound: CN(C)C/C=C/C(=O)Nc1cc2c(Nc3ccc(F)c(Cl)c3)ncnc2cc1O[C@H]1CCOC1 [Afatinib] + Cc1cc(Nc2cc(N3CCN(C)CC3)nc(Sc3ccc(NC(=O)C4CC4)cc3)n2)n[nH]1 [Tozasertib] (partner 0.1 µM)
Test: relative viability (nuclei count vs DMSO), 5 days (fraction); higher = more cells survive
Outline: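 One day after seeding in 1536-well plates, lung cancer cell lines were dosed by pin tool. Dosing was either single-drug or a fixed anchor-drug dose plus five library-drug doses (not always all listed) in √10 steps. After 5 days, nuclei were stained in one fix-and-stain step and counted on 4× images, and relative viability is the nuclei count of treated wells over that of vehicle wells, given as the median of duplicate plates.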

Cell Line | relative viability (first compound 0.005 µM) | relative viability (first compound 0.01581 µM) | relative viability (first compound 0.05 µM) | relative viability (first compound 0.1581 µM) | relative viability (first compound 0.5 µM)
201T | 1.01 | 0.915 | 0.948 | 0.806 | 0.827
A-427 | 0.204 | 0.193 | 0.192 | 0.173 | 0.225
ABC-1 | 0.172 | 0.123 | 0.177 | 0.168 | 0.165
BEN | 0.461 | 0.512 | 0.57 | 0.475 | 0.494
CAL-12T | 0.315 | 0.339 | 0.311 | 0.168 | 0.189
COR-L23 | 0.216 | 0.202 | 0.216 | 0.167 | 0.166
COR-L 105 | 0.333 | 0.255 | 0.258 | 0.165 | 0.206
ChaGo-K-1 | 0.231 | 0.239 | 0.225 | 0.215 | 0.212
EKVX | 0.379 | 0.423 | 0.31 | 0.132 | 0.169
EMC-BAC-2 | 0.315 | 0.299 | 0.342 | 0.326 | 0.309
EPLC-272H | 0.205 | 0.427 | 0.133 | 0.164 | 0.253
H3255 | 0.315 | 0.204 | 0.222 | 0.168 | 0.195
HARA | 0.0895 | 0.0918 | 0.0646 | 0.0722 | 0.062
HCC-15 | 0.49 | 0.488 | 0.422 | 0.299 | 0.406
HCC-44 | 1.18 | 1.02 | 1 | 0.946 | 0.897
HCC-78 | 0.474 | 0.405 | 0.403 | 0.312 | 0.47
HCC-366 | 0.122 | 0.143 | 0.0823 | 0.0878 | 0.069
HCC-827 | 0.0972 | 0.11 | 0.112 | 0.131 | 0.112
HOP-62 | 0.43 | 0.347 | 0.385 | 0.37 | 0.435
LC-2-ad | 0.507 | 0.48 | 0.439 | 0.483 | 0.431
LCLC-97TM1 | 0.248 | 0.247 | 0.159 | 0.268 | 0.179
LCLC-103H | 0.425 | 0.508 | 0.441 | 0.516 | 0.49
LK-2 | 0.161 | 0.173 | 0.2 | 0.182 | 0.166
LOU-NH91 | 0.475 | 0.444 | 0.527 | 0.51 | 0.479

Cell Line | relative viability (first compound 0.005 µM) | relative viability (first compound 0.01581 µM) | relative viability (first compound 0.05 µM) | relative viability (first compound 0.1581 µM) | relative viability (first compound 0.5 µM)
LU99A | 0.275 | 0.273 | 0.256 | 0.254 | 0.231
LXF-289 | 0.146 | 0.146 | 0.2 | 0.152 | 0.214
NCI-H23 | 0.356 | 0.366 | 0.321 | 0.391 | 0.315
NCI-H322M | 0.386 | 0.329 | 0.307 | 0.304 | 0.313
NCI-H358 | 0.0992 | 0.111 | 0.0922 | 0.0887 | 0.076
NCI-H441 | 0.757 | 0.788 | 0.67 | 0.532 | 0.494
NCI-H460 | 0.487 | 0.511 | 0.407 | 0.269 | 0.395
NCI-H520 | 0.435 | 0.355 | 0.462 | 0.342 | 0.422
NCI-H522 | 0.512 | 0.535 | 0.521 | 0.449 | 0.401
NCI-H596 | 0.848 | 0.881 | 0.92 | 0.777 | 0.772
NCI-H647 | 0.251 | 0.263 | 0.417 | 0.211 | 0.276
NCI-H650 | 0.846 | 0.735 | 0.782 | 0.721 | 0.683
NCI-H661 | 0.34 | 0.367 | 0.367 | 0.361 | 0.377
NCI-H727 | 0.597 | 0.614 | 0.543 | 0.514 | 0.449
NCI-H838 | 0.29 | 0.264 | 0.282 | 0.222 | 0.276
NCI-H1355 | 0.577 | 0.517 | 0.522 | 0.501 | 0.464
NCI-H1395 | 0.784 | 0.759 | 0.712 | 0.709 | 0.667
NCI-H1437 | 0.416 | 0.43 | 0.41 | 0.397 | 0.412
NCI-H1648 | 0.734 | 0.624 | 0.592 | 0.241 | 0.311
NCI-H1650 | 0.409 | – | 0.408 | 0.313 | 0.343
NCI-H1651 | 0.718 | 0.748 | 0.727 | 0.591 | 0.609
NCI-H1666 | 0.673 | 0.621 | 0.596 | 0.519 | 0.551
NCI-H1734 | 0.253 | 0.255 | 0.269 | 0.289 | 0.26
NCI-H1755 | 0.522 | 0.499 | 0.59 | 0.554 | 0.566

Cell Line | relative viability (first compound 0.005 µM) | relative viability (first compound 0.01581 µM) | relative viability (first compound 0.05 µM) | relative viability (first compound 0.1581 µM) | relative viability (first compound 0.5 µM)
NCI-H1793 | 0.315 | 0.377 | 0.252 | 0.147 | 0.242
NCI-H1915 | 0.522 | 0.46 | 0.414 | 0.427 | 0.419
NCI-H1944 | 0.234 | 0.247 | 0.216 | 0.195 | 0.208
NCI-H1975 | 0.7 | 0.702 | 0.641 | 0.268 | 0.218
NCI-H1993 | 0.556 | 0.582 | 0.601 | 0.617 | 0.549
NCI-H2009 | 0.856 | 0.785 | 0.789 | 0.713 | 0.732
NCI-H2023 | 0.422 | 0.377 | 0.366 | 0.169 | 0.248
NCI-H2085 | 0.795 | 0.754 | 0.721 | 0.619 | 0.619
NCI-H2087 | 0.232 | 0.25 | 0.267 | 0.229 | 0.202
NCI-H2126 | 0.852 | 0.813 | 0.668 | 0.571 | 0.632
NCI-H2170 | 0.651 | 0.574 | 0.355 | 0.221 | 0.203
NCI-H2228 | 0.271 | 0.259 | 0.217 | 0.191 | 0.205
NCI-H2342 | 0.464 | 0.545 | 0.472 | 0.421 | 0.393
NCI-H2347 | 0.509 | 0.593 | 0.596 | 0.484 | 0.603
NCI-H2405 | 0.779 | 0.741 | 0.741 | 0.646 | 0.824
NCI-H3122 | 0.452 | 0.504 | 0.394 | 0.327 | 0.459
PC-3 [JPC-3] | 0.443 | 0.416 | 0.428 | 0.291 | 0.37
PC-14 | 0.228 | 0.257 | 0.254 | 0.232 | 0.247
RERF-LC-KJ | 0.502 | 0.611 | 0.575 | 0.424 | 0.484
SK-LU-1 | 0.332 | 0.32 | 0.355 | 0.322 | 0.277
SK-MES-1 | 0.928 | 0.897 | 0.723 | 0.613 | 0.532
SW 1573 | 0.16 | 0.175 | 0.202 | 0.158 | 0.171
UMC-11 | 0.206 | 0.199 | 0.198 | 0.207 | 0.187
